Reference: patent US20060069132A1, “Azolecarboxamide herbicides” (priority 2004, published 2006)

Legend:
cocklebur = experiment: Test C pre-/postemergence herbicide test; format: in vivo, Xanthium strumarium; conditions: preemergence; for Plant response rating (0 = no effect, 100 = complete control), Cocklebur: 125 g ai/ha
Description: (§1) Seeds of plant species selected from bermudagrass (Cynodon dactylon (L.) Pers.), Surinam grass (Urochloa decumbens (Staph) R. D. Webster, previously named Brachiaria decumbens Stapf), cocklebur (Xanthium strumarium L.), corn (Zea mays L.), large crabgrass (Digitaria sanguinalis (L.) Scop.), woolly cupgrass (Eriochloa villosa (Thunb.) Kunth), giant foxtail (Setaria faberi Herrm.), goosegrass (Eleusine indica (L.) Gaertn.), johnsongrass (Sorghum halepense (L.) Pers.), kochia (Kochia scoparia (L.) Schrad.), lambsquarters (Chenopodium album L.), morningglory (Ipomoea coccinea L.), eastern black nightshade (Solanum ptycanthum Dunal), yellow nutsedge (Cyperus esculentus L.), pigweed (Amaranthus retroflexus L.), common ragweed (Ambrosia elatior L.), soybean (Glycine max (L.) Merr.), common (oilseed) sunflower (Helianthus annuus L.) and velvetleaf (Abutilon theophrasti Medik.) were planted and treated preemergence with test chemicals formulated in a non-phytotoxic solvent mixture which included a surfactant.
(§2) At the same time, plants selected from these crop and weed species and also winter barley (Hordeum vulgare L.), blackgrass (Alopecurus myosuroides Huds.), canarygrass (Phalaris minor Retz.), chickweed (Stellaria media (L.) Vill.), downy bromegrass (Bromus tectorum L.), green foxtail (Setaria viridis (L.) Beauv.), Italian ryegrass (Lolium multiflorum Lam.), wheat (Triticum aestivum L.), wild oat (Avenafatua L.) and windgrass (Apera spica-venti (L.) Beauv.) were treated with postemergence applications of some of the test chemicals formulated in the same manner. Plants ranged in height from 2 to 18 cm (1- to 4-leaf stage) for postemergence treatments. Plant species in the flooded paddy test consisted of rice (Oryza sativa), smallflower umbrella sedge (Cyperus difformis L.), ducksalad (Heteranthera limosa (Sw.) Willd.) and barnyardgrass (Echinochloa crus-galli (L.) Beauv.) grown to the 2-leaf stage for testing. Treated plants and controls were maintained in a greenhouse for 12 to 14 days, after which time all species were compared to controls and visually evaluated. Plant response ratings, summarized in Table C, are based on a scale of 0 to 100 where 0 is no effect and 100 is complete control. A dash (-) response means no test result.

velvetleaf = experiment: Test C pre-/postemergence herbicide test; format: in vivo, Abutilon theophrasti; conditions: preemergence; for Plant response rating (0 = no effect, 100 = complete control), Velvetleaf: 125 g ai/ha
Description: as §1, §2

corn = experiment: Test C pre-/postemergence herbicide test; format: in vivo, Zea mays; conditions: preemergence; for Plant response rating (0 = no effect, 100 = complete control), Corn: 125 g ai/ha
Description: as §1, §2

johnsongrass = experiment: Test C pre-/postemergence herbicide test; format: in vivo, Sorghum halepense; conditions: preemergence; for Plant response rating (0 = no effect, 100 = complete control), Johnsongrass: 125 g ai/ha
Description: as §1, §2

pigweed = experiment: Test C pre-/postemergence herbicide test; format: in vivo, Amaranthus retroflexus; conditions: preemergence; for Plant response rating (0 = no effect, 100 = complete control), Pigweed: 125 g ai/ha
Description: as §1, §2

redroot pigweed = experiment: Test A pre-/postemergence herbicide test; format: in vivo, Amaranthus retroflexus
In short: (§3)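 Greenhouse injury scoring (0–100, complete control = 100) at approximately ten days follows simultaneous pre- and postemergence application. Soil received a directed spray after seeding; seedlings of 2–10 cm at the one- to two-leaf stage were sprayed to runoff.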

barnyardgrass = experiment: Test A pre-/postemergence herbicide test; format: in vivo, Echinochloa crus-galli
In short: as §3

[1] = 500 g ai/ha, scale 0 to 100 (0 no effect, 100 complete control), visual, 12 to 14 days
[2] = Postemergence, 500 g ai/ha, 0 to 100 scale, 0 no effect, 100 complete control
[3] = Postemergence, 2000 g ai/ha, 0 to 100 scale, 0 no effect, 100 complete control
[4] = Preemergence, 500 g ai/ha, visual rating, 0 to 100 scale (0 no effect, 100 complete control)
[5] = Preemergence, 2000 g ai/ha, 0 to 100 scale, 0 no effect, 100 complete control
[6] = Preemergence, 2000 g ai/ha, visual rating, 0 to 100 scale (0 no effect, 100 complete control)
[7] = preemergence, 500 g ai/ha, visual injury, 0 to 100 scale (0 no effect, 100 complete control)

| Structure (SMILES) | Plant response rating, Cocklebur (cocklebur; 62 g ai/ha, scale 0 to 100) | Plant response rating (0 = no effect, 100 = complete control), Cocklebur (cocklebur) | Plant response rating, Cocklebur (cocklebur; 250 g ai/ha, scale 0-100) | Plant response rating, Cocklebur (cocklebur; [1]) | Plant response rating, Velvetleaf (velvetleaf; 62 g ai/ha, scale 0 to 100) | Plant response rating (0 = no effect, 100 = complete control), Velvetleaf (velvetleaf) | Plant response rating, Velvetleaf (velvetleaf; [1]) | Plant response rating, Corn (corn; 62 g ai/ha, scale 0 to 100) | Plant response rating (0 = no effect, 100 = complete control), Corn (corn) | Plant response rating, Corn (corn; 250 g ai/ha, scale 0-100) | Plant response rating, Corn (corn; [1]) | Plant response rating, Johnsongrass (johnsongrass; 62 g ai/ha, scale 0 to 100) | Plant response rating (0 = no effect, 100 = complete control), Johnsongrass (johnsongrass) | Plant response rating, Johnsongrass (johnsongrass; 250 g ai/ha, scale 0-100) | Plant response rating, Johnsongrass (johnsongrass; [1]) | Plant response rating, Pigweed (pigweed; 62 g ai/ha, scale 0 to 100) | Plant response rating (0 = no effect, 100 = complete control), Pigweed (pigweed) | Plant response rating, Pigweed (pigweed; [1]) | Plant response rating, Pigweed (redroot pigweed; [3]) | Plant response rating, Barnyardgrass (barnyardgrass; [3]) | further results |
| --- | --- | --- | --- | --- | --- | --- | --- | --- | --- | --- | --- | --- | --- | --- | --- | --- | --- | --- | --- | --- | --- |
| CCc1nn(C(C)C)nc1C(=O)Nc1cccc(C(=O)N(C)CC)c1 [Compound 386] | 0 | 20 | 30 | 70 | 70 | 100 | 100 | 10 | 60 | 80 | 85 | 85 | 100 | 100 | 100 | 100 | 100 | 100 |  |  | Plant response rating, Velvetleaf (velvetleaf; 250 g ai/ha, scale 0-100): 100; Plant response rating, Pigweed (pigweed; 250 g ai/ha, scale 0-100): 100 |
| CCNC(=S)c1cccc(NC(=O)c2nn(C(C)(C)C)nc2C)c1 [Compound 420] | 0 | 0 | 15 | 70 | 80 | 100 | 100 | 0 | 0 | 10 | 40 | 100 | 100 | 100 | 100 | 100 | 100 | 100 |  |  |  |
| CCn1nc(C(C)(C)C)cc1C(=O)Nc1cccc(C(=O)NCCF)c1 [Compound 45] |  |  |  |  |  |  |  |  |  |  |  |  |  |  |  |  |  |  | 100 | 100 | Plant response rating, Pigweed (redroot pigweed; [2]): 100; Pigweed plant response rating (redroot pigweed; [4]): 95; Pigweed plant response rating (redroot pigweed; [5]): 100; Plant response rating, Barnyardgrass (barnyardgrass; [2]): 100; Barnyardgrass plant response rating (barnyardgrass; [4]): 80; Barnyardgrass plant response rating (barnyardgrass; [5]): 95 |
| CCN(C(C)=O)C(=O)c1ccc(F)c(NC(=O)c2cc(C(C)(C)C)nn2CC)c1 [Compound 413] |  |  |  |  |  |  |  |  |  |  |  |  |  |  |  |  |  |  | 85 | 50 | Pigweed plant response rating (redroot pigweed; [2]): 60; Pigweed plant response rating (redroot pigweed; [6]): 60; Pigweed plant response rating (redroot pigweed; [7]): 45; Barnyardgrass plant response rating (barnyardgrass; [2]): 20; Barnyardgrass plant response rating (barnyardgrass; [6]): 75; Barnyardgrass plant response rating (barnyardgrass; [7]): 60 |
